# Test results published in patent US9877961B2, “Anticoagulant reversal agents” (PEROSPHERE INC., priority 2011, dated 2018).
# Entries after “also recorded” stand apart in the source; their conditions may differ.
# Columns and labels:
# [1] = system: rivaroxaban anticoagulation; assay: Rat tail transection bleeding assay, rivaroxaban; type: in vivo
# Procedure: Rat tail bleeding assay or rat tail transection assay is an assay that measures blood loss, e.g., blood loss after drug administration. In one embodiment, where the effect of the compound of the invention (e.g., DAP) is being tested, at the Tmax of the anticoagulant, DAP is administered intravenously. After 20 minutes, rat tails are transected approximately 1 mm from the tip, placed in room temperature saline, and blood is collected for 30 minutes and weighed.
# Three rats each were administered 2 mg of rivaroxaban. One rat received a sham reversal containing no DAP, the second received 2.5 mg of DAP, and the third received 12.5 mg DAP. A fourth fat received sham anticoagulant and reversal doses (“sham”). 20 minutes after the reversal dose, tails were transected 1 mm from the tip, placed in room temperature saline, and blood loss was collected for 30 minutes and then weighed.
# [2] = system: rivaroxaban (XARELTO®) anticoagulation; assay: DAP reversal of rivaroxaban (XARELTO®) anticoagulation in vivo, aPTT; parameters: species or system rat; conditions: rats, 5 mg/kg rivaroxaban oral, 5 mg/kg (2 mg) DAP i.v.
# Procedure: (§1) The activated partial thromboplastin time (aPTT) assay is an assay that measures how long it takes for the blood to clot. Blood samples are collected for direct measurement or in tubes with oxalate and citrate to arrest coagulation by calcium until the assay can be performed. In the assay, a phospholipid, an activator (silica, celite, kaolin, ellagic acid, etc.), and calcium are mixed into the plasma to induce coagulation. The assay measures the time until a thrombus (clot) forms.
# 5 mg/kg rivaroxaban (XARELTO®) was orally administered to rats. After four hours, 5 mg/kg of DAP (2 mg DAP) was administered intravenously. aPTT were measured at zero, 15, 30, 45, 60 and 240 minutes, prior to administration of DAP. aPTT was again measured at about 5, 10, 25, 35, 45, 60, 120, and 240 minutes after DAP administration.
# [3] = DLS association of DAP with fondaparinux; type: binding
# Procedure: (§2) Rivaroxaban (XARELTO®) alone, DAP alone, and DAP:rivaroxaban combinations at mass ratios of 1:1 and 10:1 were added into an aqueous solution and analyzed by dynamic light scattering (DLS) to assess association of the DAP and rivaroxaban. A similar experiment was conducted on apixaban (ELIQUIS®) alone, DAP alone, and DAP:apixaban combinations at mass ratios of 1:1, 10:1 and 100:1. Fondaparinux (ARIXTRA®) alone, DAP alone, and fondaparinux:DAP combinations at mass ratios of 1:1, 10:1 and 100:1 were similarly tested. LMWH (bemiparin; HIBOR®), alone, DAP alone, and LMWH:DAP combinations at mass ratios of 1:1, 10:1, and 100:1 were also tested. The concentration of LMWH tested was 0.1 mg/ml. Therefore, at 1:1, 0.1 mg/ml DAP was tested, at 10:1, 1 mg/ml was tested, and at 100:1, 10 mg/ml DAP was tested.
# [4] = system: dabigatran (PRADAXA®) anticoagulation; assay: DAP reversal of dabigatran (PRADAXA®) anticoagulation in vivo, aPTT; parameters: species or system rat
# Excerpt: as §1
# A male albino rat, weighing 430 g, was administered 40 mg/kg of PRADAXA® (20 mg PRADAXA®; overdose of PRADAXA®) by oral gavage.
# Approximately 2 hours into PRADAXA® treatment, 200 mg/kg DAP (100 mg DAP) was administered as an intravenous bolus injection. Approximately 2 hours later, the rat was administered a dose of 100 mg/kg of DAP (50 mg DAP). In another hour, the rat was administered another dose of 100 mg/kg of DAP (50 mg DAP). aPTT was measured throughout the course of the entire treatment.
# apixaban anticoagulation = assay: DAP reversal of apixaban in human plasma ex vivo, Biophen anti-Factor Xa chromogenic assay; type: biochemical
# Procedure: The anti-factor Xa assay directly measures anti-factor Xa activity. The methodology behind an anti-factor Xa assay is that patient plasma is added to a known amount of excess factor Xa and excess antithrombin. If a factor Xa inhibitor is present in the patient plasma, it will reduce the enzymatic activity of factor Xa. The amount of residual factor Xa is inversely proportional to the amount of anti-Xa agent in the plasma. The amount of residual factor Xa is detected by adding a chromogenic substrate that mimics the natural substrate of factor Xa, making residual factor Xa cleave it, releasing a colored compound that can be detected by a spectrophotometer. […] Results are given in anticoagulant concentration in units/mL of antifactor Xa, such that high values indicate high levels of anticoagulation and low values indicate low levels of anticoagulation.
# (§3) 218 μg/L or 459 μg/L of rivaroxaban was added to human plasma, with or without 1,250 μg/L or 6,250 μg/L of DAP, respectively. […] DAP effect on anticoagulation was measured by 510 k cleared Biophen anti-Factor Xa chromogenic assay. Rivaroxaban concentrations were determined by comparison with plasma calibration standards, while apixaban concentrations were inferred from stock solution dilutions as calibration standards are not yet available.
# [5] = DLS association of DAP with apixaban; type: binding
# Procedure: as §2
# [6] = Intravenous DAP tolerability in rats; type: in vivo, rat; conditions: DAP i.v. at 100 mg/kg, 250 mg/kg and 400 mg/kg in rats
# plasma proteins = assay: Plasma protein binding; type: in vitro ADME; conditions: data not shown
# [7] = DLS association of DAP with rivaroxaban; type: binding
# Procedure: as §2
# [8] = system: argatroban anticoagulation; assay: Argatroban dosed rats given IV DAP; type: in vivo, rat; conditions: 200× IV dose of DAP
# [9] = system: rivaroxaban anticoagulation; assay: DAP reversal of rivaroxaban in human plasma ex vivo, Biophen anti-Factor Xa chromogenic assay; type: biochemical
# Procedure: The anti-factor Xa assay directly measures anti-factor Xa activity. The methodology behind an anti-factor Xa assay is that patient plasma is added to a known amount of excess factor Xa and excess antithrombin. If a factor Xa inhibitor is present in the patient plasma, it will reduce the enzymatic activity of factor Xa. The amount of residual factor Xa is inversely proportional to the amount of anti-Xa agent in the plasma. The amount of residual factor Xa is detected by adding a chromogenic substrate that mimics the natural substrate of factor Xa, making residual factor Xa cleave it, releasing a colored compound that can be detected by a spectrophotometer. […]
# as §3
# 218 μg/L rivaroxaban was added to human plasma either alone or in combination with 1.25, 12.5, 125, or 1,250 μg/L of DAP. Factor Xa activity was measured by 510 k cleared Biophen anti-Xa chromogenic assay kit. Rivaroxaban concentrations were determined by comparison with plasma calibration standards.
# [10] = system: dabigatran (PRADAXA®) anticoagulation; assay: DAP reversal of dabigatran (PRADAXA®) anticoagulation in vivo, aPTT; parameters: species or system rat; conditions: 15.5 mg/kg PRADAXA®, 100 mg/kg DAP (FIG. 13)
compound,measurement,setting,value
"N=C(N)NCCC[C@H](N)C(=O)NCCCN1CCN(CCCNC(=O)[C@@H](N)CCCNC(=N)N)CC1 (stereo in doubt) [DAP, 2-Amino-5-guanidino-pentanoic acid (3-{4-[3-(2-amino-5-guanidino-pentanoylamino)-propyl]-piperazin-1-yl}-propyl)-amide]",blood loss (blood collected over 30 minutes),"[1]; 2 mg rivaroxaban and 12.5 mg DAP, p<0.05 vs rivaroxaban only",reduced blood loss to sham dose levels
same,"reversal of rivaroxaban, blood loss vs anticoagulant only","[1]; rat tail transection, 30 minutes",statistically significant reduction in blood loss
same,reversal of oral rivaroxaban anticoagulation in vivo,[2],effectively reversed
same,binding by DLS,[3],directly bound
same,aPTT risen back after first DAP dose,[4]; 2 hours after 100 mg DAP,79 s
same,aPTT risen after second DAP dose,[4]; after 50 mg DAP,53 s
same,time until aPTT returned above baseline following DAP administration,[4]; both times (first and second DAP dose),≤ 60 min
same,time until aPTT below baseline after DAP,"[4]; first dose, 100 mg DAP (200 mg/kg) i.v. bolus",≤ 25 min
same,elimination half-life,[4]; inferred from return of anti-coagulation in rats,short elimination half-life
same,time until PRADAXA®-induced anti-coagulation returned after DAP,[4]; intravenous bolus dose of DAP in rats,20 to 30 min
same,reversal of oral dabigatran anticoagulation in vivo,"[4]; rats, aPTT",reversed
same,time until aPTT below baseline after DAP,"[4]; second dose, 50 mg DAP (100 mg/kg)",≤ 30 min
same,time until aPTT dropped to baseline after DAP,"[4]; third dose, 100 mg/kg (50 mg) DAP i.v.",≤ 20 min
same,effective anticoagulant concentration after DAP,"apixaban anticoagulation; 156 μg/L apixaban with 1,156 μg/L DAP, 313 μg/L apixaban with 3,125 μg/L DAP",below the minimum effective concentration
same,dose dependence of apixaban reversal,apixaban anticoagulation; human blood ex vivo,dose-dependent reversal
same,binding by DLS,[5],directly bound
same,adverse effects,[6],no adverse effect
same,plasma protein binding,plasma proteins,did not appreciably bind
same,binding by DLS,[7],directly bound
same,anticoagulation of argatroban dosed rats after DAP,[8],remained anticoagulated
same,effective anticoagulant concentration after DAP,"[9]; 218 μg/L rivaroxaban with 1,250 μg/L DAP, 459 μg/L rivaroxaban with 6,250 μg/L DAP",below the minimum effective concentration
same,dose dependence of rivaroxaban reversal,"[9]; 218 μg/L rivaroxaban, 1.25, 12.5, 125, or 1,250 μg/L DAP",dose-responsive trend; also recorded: dose-dependent reversal
same,time until aPTT returned to normal after DAP,[10],≤ 30 min
